Laboratory results as given in US6531481B2 (priority 1998, dated 2003).
Counter-ions that a name gives are not always drawn. Values belong to the molecule of their own block, whether it stands above or below them.

Tests used:
[1] = tested on: opioid receptors; assay: Stimulation of [35S]GTPγS binding (agonist/antagonist activity); type: biochemical, guinea pig

melting point: 177 to 178 °C
SMILES: C=CCN1CC[C@@H](N(c2ccccc2)c2ccc(C(=O)N(CC)CC)cc2)[C@H](C)C1 (racemic) (as salt: hydrochloride)

melting point: 221 to 225.5 °C
SMILES: C=CCN1CC[C@H](N(c2ccccc2)c2ccc(C(=O)N(CC)CC)cc2)[C@H](C)C1 (racemic) (as salt: hydrochloride)

SMILES: CN1CCC2(c3cccc(O)c3)Cc3ccccc3CC2(C)C1 (racemic) [Compound 7, (±)-1,2,3,4,4a,5,10,10a-octahydro-4a-(3-hydroxyphenyl)-2,10a-dimethylbenzo-[g]isoquinoline]
stimulation of [35S]GTPγS binding (agonist activity) ([1]; concentrations as high as 1 μM): neither the N-methyl derivative 7 nor the N-phenethyl derivative 8 stimulated

SMILES: CC1C2CCCC1(c1cccc(O)c1)CCN2CCc1ccccc1 (stereo not drawn) [Compound 5c, 5-(3-Hydroxyphenyl)-9β-methyl-2-(2′-phenylethyl)-2-azabicyclo[3.3.1]nonane]
agonist/antagonist character ([1]; [35S]GTPγS functional assay): pure antagonists at the μ, δ, and κ opioid receptors | stimulation of GTP binding (agonist activity) ([1]; up to concentrations of 10 μM): neither 5b nor 5c stimulated GTP binding
